Measurements reported in patent US7527812B2, “Herbal composition for treating cancer” (Sheng Foong Pharmaceutical Co., Ltd., priority 2005, dated 2009).

Tests used:
Format in all cases: cell-based
[1] = test system: A-498 kidney carcinoma cells; experiment: in vitro cytotoxicity assay (MTS), A498; details: Homo sapiens, A498, 72 hours exposure, read-out: IC50 (concentration that inhibits 50% of cell growth)
Text: (§1) To examine the effects of the present composition SF-01 on inhibition of cancer/tumor cells, various human cell lines were used, including one normal cell line and eight cancer/tumor cell lines: • 1. RPTEC (Cambrex): Normal renal proxima tubule epithelial cell, Human • 2. A-498 (ATCC HTB-44): Kidney carcinoma, Human • 3. HCT 116 (ATCC CCL-247): Colorectal carcinoma, Human • 4. Hep 3B (ATCC HB-8064): Hepatocellular carcinoma, Human • 5. LNCap clone FGC (ATCC CRL-1740): Prostate carcinoma, Human • 6. MCF-7 (ATCC HTB-22): Mammary gland adenocarcinoma, Human • 7. MKN45 (FDSC JCRB0245): Stomach carcinoma, Human • 8. NCI-H226 (ATCC CRL-5826): Lung carcinoma, Human • 9. NPC-TW01 (School of Medicine, NTU): Nasal-pharyngeal carcinoma, Human […]
(§2) To evaluate the antitumoral activity of SF-01 towards various human cancer cell lines and measure the potential cytotoxicity of SF-01 towards the primary human renal cell lines (RPTEC), an in vitro cytotoxicity assay was carried out. […] To quantify the metabolically viable cells, the conversion of MTS to formazan was measured by absorbance at 490 nm in a 96-well microtiter plate reader. […] The percentage of cytostasis was calculated by the formula: Cytostasis (%)=[1−(B/A)]×100, where A is the absorbance of the untreated control and B is the absorbance of the treated cell. […]

[2] = test system: various human tumor cell lines; experiment: in vitro cytotoxicity assay (MTS), span over the tumor cell lines; details: span over the eight tumor cell lines, 72 hours exposure
Text: as §1, §2

[3] = test system: LNCaP clone FGC prostate carcinoma cells; experiment: in vitro cytotoxicity assay (MTS), LNCaP clone FGC; details: Homo sapiens, 72 hours exposure, read-out: IC50 (concentration that inhibits 50% of cell growth)
Text: as §1, §2

[4] = test system: Hep 3B hepatocellular carcinoma cells; experiment: in vitro cytotoxicity assay (MTS), Hep 3B; details: Homo sapiens, Hep3B, 72 hours exposure, read-out: IC50 (concentration that inhibits 50% of cell growth)
Text: as §1, §2

[5] = test system: HCT 116 colorectal carcinoma cells; experiment: in vitro cytotoxicity assay (MTS), HCT 116; details: Homo sapiens, HCT 116, 72 hours exposure, read-out: IC50 (concentration that inhibits 50% of cell growth)
Text: as §1, §2

[6] = test system: NPC-TW01 nasal-pharyngeal carcinoma cells; experiment: in vitro cytotoxicity assay (MTS), NPC-TW01; details: Homo sapiens, NPC-TW01, 72 hours exposure, read-out: IC50 (concentration that inhibits 50% of cell growth)
Text: as §1, §2

[7] = test system: MKN45 stomach carcinoma cells; experiment: in vitro cytotoxicity assay (MTS), MKN45; details: Homo sapiens, MKN-45, MKN45, 72 hours exposure, read-out: IC50 (concentration that inhibits 50% of cell growth)
Text: as §1, §2

[8] = test system: NCI-H226 lung carcinoma cells; experiment: in vitro cytotoxicity assay (MTS), NCI-H226; details: Homo sapiens, NCI-H226, 72 hours exposure, read-out: IC50 (concentration that inhibits 50% of cell growth)
Text: as §1, §2

[9] = test system: RPTEC normal renal proximal tubule epithelial cells; experiment: in vitro cytotoxicity assay (MTS), normal cell RPTEC; details: Homo sapiens, 72 hours exposure, read-out: IC50 (concentration that inhibits 50% of cell growth)
Text: as §1, §2

[10] = test system: MCF-7 mammary gland adenocarcinoma cells; experiment: in vitro cytotoxicity assay (MTS), MCF-7; details: Homo sapiens, MCF7, MCF-7, 72 hours exposure, read-out: IC50 (concentration that inhibits 50% of cell growth)
Text: as §1, §2

Row | SMILES | IC50 [1] | IC50 to various human tumor cell lines (span over the lines) [2] | IC50 [3] | IC50 [4] | IC50 [5] | IC50 [6] | IC50 [7] | IC50 [8] | IC50 [9] | IC50 [10]
1 | COc1cccc2c1C(=O)c1c(O)c3c(c(O)c1C2=O)C[C@@](O)(C(=O)CO)C[C@@H]3O[C@H]1C[C@H](N)[C@H](O)[C@H](C)O1 [Doxorubicin] | 782 nM | 800 to 11 nM | 14 nM | 116 nM | 33 nM | 11 nM | 58 nM | 123 nM | 3180 nM | 70 nM
2 | CC(=O)O[C@H]1C(=O)[C@@]2(C)[C@H]([C@H](OC(=O)c3ccccc3)[C@]3(O)C[C@H](OC(=O)[C@H](O)[C@@H](NC(=O)c4ccccc4)c4ccccc4)C(C)=C1C3(C)C)[C@]1(OC(C)=O)CO[C@@H]1C[C@@H]2O [Taxol] | 11.1 nM | 11 to 0.003 nM | < 0.0256 nM | 0.0256 nM | < 0.0256 nM | < 0.0256 nM | 0.0256 nM | < 0.64 nM | 406 nM | < 0.0256 nM
